Measurements as given in patent US20070128217A1 (priority 2003, published 2007).

Experiments:
[1] = tested on: control sera (pooled serum of ten healthy LUMC hospital workers; commercial negative donor pooled serum from the Dutch bloodbank); format: binding, human; set-up: Binding of Control serum LUMC to linear peptides / Binding of Control serum Blood-bank to linear peptides / Binding of Control serum LUMC to looped peptides / Binding of Control Serum Blood-Bank to Looped peptides / Binding of Control serum LUMC to linear peptides of the protein M of SARS-CoV Urbani / Binding of Control serum Blood-bank to linear peptides of the protein M of SARS-CoV Urbani / Binding of Control serum LUMC to looped peptides of the protein M of SARS-CoV Urbani / Binding of Control Serum Blood-Bank to Looped peptides of the protein M of SARS-CoV Urbani: unit not given here
[2] = tested on: rabbit serum obtained by immunizing a rabbit with the SARS-CoV strain Frankfurt 1; format: binding; set-up: Binding of a rabbit serum to linear peptides / Binding of a rabbit serum to looped peptides / Rabbit serum linear peptides / Rabbit serum looped peptides / Binding of a rabbit serum to linear peptides of protein N of SARS-CoV Urbani (Rabbit serum linear peptides) / Binding of a rabbit serum to looped/cyclic peptides of protein N of SARS-CoV Urbani (Rabbit serum looped peptides): unit not given here
[3] = tested on: antibodies in sera from SARS patients (sera 1a, 1b, 2, 6, 37, 62, London, SARS-yellow, SARS-green); format: binding, human; set-up: Binding of serum 6 to linear peptides of protein X1 of SARS-CoV Urbani / Binding of serum 37 to linear peptides of protein X1 of SARS-CoV Urbani / Binding of serum 6 to looped/cyclic peptide (PEPSCAN-ELISA) / Binding of serum 37 to looped/cyclic peptide (PEPSCAN-ELISA) / Binding of serum 37 to looped/cyclic peptides of protein X1 of SARS-CoV Urbani / Binding of serum 6 to linear peptides of protein X2 / Binding of serum 37 to linear peptides of protein X2 / Binding of serum 37 to looped/cyclic peptides of protein X2 of SARS-CoV Urbani / Binding of serum 6 to linear peptides of protein M of SARS-CoV Urbani / Binding of serum 37 to linear peptides of protein M of SARS-CoV Urbani / Binding of serum 6 to looped/cyclic peptides of protein M of SARS-CoV Urbani / Binding of serum 37 to looped/cyclic peptides of protein M of SARS-CoV Urbani / Binding of serum 6 to linear peptides of protein X3 of SARS-CoV Urbani / Binding of serum 37 to linear peptides of protein X3 of SARS-CoV Urbani / Binding of serum 37 to looped/cyclic peptides of protein X3 of SARS-CoV Urbani / Binding of serum 6 to linear peptides of protein X4 of SARS-CoV Urbani / Binding of serum 37 to linear peptides of protein X4 of SARS-CoV Urbani / Binding of serum 37 to looped/cyclic peptides of protein X4 of SARS-CoV Urbani / Binding of serum 6 to linear peptides of protein X5 of SARS-CoV Urbani / Binding of serum 37 to linear peptides of protein X5 of SARS-CoV Urbani / Binding of serum 37 to looped/cyclic peptides of protein X5 of SARS-CoV Urbani / Binding of serum 6 to linear peptides of protein N of SARS-CoV Urbani / Binding of serum 37 to linear peptides of protein N of SARS-CoV Urbani / Binding of serum 6 to linear peptide (PEPSCAN-ELISA) / Binding of serum 1a to looped/cyclic peptides of protein N of SARS-CoV Urbani / Binding of serum 1b to looped/cyclic peptides of protein N of SARS-CoV Urbani / Binding of serum 2 to looped/cyclic peptides of protein N of SARS-CoV Urbani / Binding of serum 6 to looped/cyclic peptides of protein N of SARS-CoV Urbani / Binding of serum 37 to looped/cyclic peptides of protein N of SARS-CoV Urbani / Binding of serum 62 to looped/cyclic peptides of protein N of SARS-CoV Urbani / Binding of serum London to looped/cyclic peptides of protein N of SARS-CoV Urbani / Binding of serum SARS-green to looped/cyclic peptides of protein N of SARS-CoV Urbani: unit not given here
[4] = tested on: recombinant human anti-SARS-CoV antibody 03-018; format: binding; set-up: Binding of antibody 03-018 to linear peptides of the N protein of SARS-CoV Urbani / Binding of antibody 03-018 to looped/cyclic peptides of the N protein of SARS-CoV Urbani: unit not given here

Row | Sequence | Binding of Control Serum Blood-Bank to Looped peptides [1] | Binding of Control serum Blood-bank to linear peptides [1] | Binding of Control serum LUMC to linear peptides [1] | Binding of Control serum LUMC to looped peptides [1] | Binding of a rabbit serum to linear peptides of protein N of SARS-CoV Urbani (Rabbit serum linear peptides) [2] | Binding of a rabbit serum to looped/cyclic peptides of protein N of SARS-CoV Urbani (Rabbit serum looped peptides) [2] | Binding of serum 1a to linear peptides of protein N of SARS-CoV Urbani [3] | Binding of serum 1a to looped/cyclic peptides of protein N of SARS-CoV Urbani [3] | Binding of serum 1b to linear peptides of protein N of SARS-CoV Urbani [3] | Binding of serum 1b to looped/cyclic peptides of protein N of SARS-CoV Urbani [3] | Binding of serum 2 to linear peptides of protein N of SARS-CoV Urbani [3] | Binding of serum 2 to looped/cyclic peptides of protein N of SARS-CoV Urbani [3] | Binding of serum 6 to looped/cyclic peptides of protein N of SARS-CoV Urbani [3] | Binding of serum 37 to looped/cyclic peptides of protein N of SARS-CoV Urbani [3] | Binding of serum 62 to looped/cyclic peptides of protein N of SARS-CoV Urbani [3] | Binding of serum London to looped/cyclic peptides of protein N of SARS-CoV Urbani [3] | Binding of serum SARS-green to looped/cyclic peptides of protein N of SARS-CoV Urbani [3] | Binding of serum SARS-yellow to looped/cyclic peptides of protein N of SARS-CoV Urbani [3] | Binding of antibody 03-018 to linear peptides of the N protein of SARS-CoV Urbani [4] | Binding of antibody 03-018 to looped/cyclic peptides of the N protein of SARS-CoV Urbani [4] | also measured
1 | GTRNPNNNAATVLQL | 1.0 | 0.8 | 0.8 | 0.8 | 0.1 | 0.6 | 0.3 | 0.4 | 0.1 | 0.3 | 0.3 | 0.7 | 0.4 | 0.9 | 0.9 | 0.5 | 0.6 | 0.5 | 0.1 | 0.3 | Binding of serum 6 to linear peptides of protein N of SARS-CoV Urbani [3]: 0.2; Binding of serum 37 to linear peptides of protein N of SARS-CoV Urbani [3]: 0.7; Binding of serum 62 to linear peptides of protein N of SARS-CoV Urbani [3]: 0.7; Binding of serum London to linear peptides of protein N of SARS-CoV Urbani [3]: 0.5; Binding of serum SARS-green to linear peptides of protein N of SARS-CoV Urbani [3]: 0.3; Binding of serum SARS-yellow to linear peptides of protein N of SARS-CoV Urbani [3]: 0.6
2 | ILLNKHIDAYKTFPP | – | – | – | – | 0.2 | 0.6 | 0.2 | 0.4 | 0.1 | 0.3 | 0.2 | 0.5 | 0.3 | 0.7 | 0.7 | 0.5 | 0.5 | 0.7 | 0.1 | 0.2 | Control Serum Blood-Bank Looped peptides [1]: 0.6; Control serum Blood-bank linear peptides [1]: 0.7; Control serum LUMC linear peptides [1]: 0.7; Control serum LUMC looped peptides [1]: 0.7; Binding of serum 6 to linear peptides of protein N of SARS-CoV Urbani [3]: 0.2; Binding of serum 37 to linear peptides of protein N of SARS-CoV Urbani [3]: 0.7; Binding of serum 62 to linear peptides of protein N of SARS-CoV Urbani [3]: 0.7; Binding of serum London to linear peptides of protein N of SARS-CoV Urbani [3]: 0.5; Binding of serum SARS-green to linear peptides of protein N of SARS-CoV Urbani [3]: 0.3; Binding of serum SARS-yellow to linear peptides of protein N of SARS-CoV Urbani [3]: 0.5
3 | LGTGPEASLPYGANK | 0.5 | 0.9 | 0.9 | 0.6 | 0.2 | 0.4 | 0.3 | 0.3 | 0.1 | 0.2 | 0.3 | 0.5 | 0.2 | 0.5 | 0.4 | 0.4 | 0.4 | 0.5 | 0.1 | 0.2 | Binding of serum 6 to linear peptides of protein N of SARS-CoV Urbani [3]: 0.2; Binding of serum 37 to linear peptides of protein N of SARS-CoV Urbani [3]: 0.7; Binding of serum 62 to linear peptides of protein N of SARS-CoV Urbani [3]: 0.7; Binding of serum London to linear peptides of protein N of SARS-CoV Urbani [3]: 0.5; Binding of serum SARS-green to linear peptides of protein N of SARS-CoV Urbani [3]: 0.5; Binding of serum SARS-yellow to linear peptides of protein N of SARS-CoV Urbani [3]: 0.7
4 | AAEASKKPRQKRTAT | 0.5 | 0.8 | 0.9 | 0.5 | 0.3 | 0.5 | – | 0.2 | – | 0.1 | – | 0.2 | 0.1 | 0.4 | 0.3 | 0.3 | 0.1 | 0.2 | 0.1 | 0.2 | Recognition of the peptide by sera of SARS-CoV infected individuals, and form (linear, looped/cyclic) in which it is recognized [3]: recognized in linear form
5 | NNQNGGRNGARPKQR | 0.5 | 0.9 | 0.8 | 0.6 | 0.3 | 0.7 | 0.2 | 0.2 | 0.2 | 0.1 | 0.2 | 0.2 | 0.2 | 0.4 | 0.3 | 0.3 | 0.1 | 0.3 | 0.2 | 0.2 | Binding of serum 6 to linear peptides of protein N of SARS-CoV Urbani [3]: 0.3; Binding of serum 37 to linear peptides of protein N of SARS-CoV Urbani [3]: 0.7; Binding of serum 62 to linear peptides of protein N of SARS-CoV Urbani [3]: 0.8; Binding of serum London to linear peptides of protein N of SARS-CoV Urbani [3]: 0.5; Binding of serum SARS-green to linear peptides of protein N of SARS-CoV Urbani [3]: 0.5; Binding of serum SARS-yellow to linear peptides of protein N of SARS-CoV Urbani [3]: 0.6
